# Measurements published in patent US9732367B2, “Cell lines” (MEDIMMUNE LIMITED, priority 2012, dated 2017).
# How the values were obtained:
# Type in all cases: cell-based
# pylRS/tRNA pair = biological target: T1, pylRS/tRNA pair (Methanosarcina mazei, UniProt Q8PWY1); test: GFP assay: translational testing of pyrrolysine analogs as nnAAs; details: nnAA 2 mM, 2-3 days
# T1 construct: expressed in transfected cells; host or cells: HEK293 clone 3H7
# Text: An in vitro cell based assay was developed to assess the compatibility of the pylRS/tRNA pair and the pyrrolysine analogs of the present invention (nnAAs) by and the efficiency of nnAAs integration into a target protein. For this, HEK293 cells stably expressing pylRS (3H7) were transiently transfected with plasmids for the expression of tRNApyl and a reporter construct encoding GFPY40 (containing amber codon in place of tyrosine at amino acid residue number 40 (where 1 is the initiator methionine)) using standard transfection protocols. Transfected cells were incubated with nnAAs at 2 mM for 2-3 days GFP production was analyzed qualitatively by visual inspection under the microscope. The GFP fluorescence was quantified by flow cytometry using an Accuri flow cytometer and the geometric mean of the fluorescent cells determined.
# This cell based assay was used to determine whether the different nnAAs were suitable substrates for the pylRS and allowed its translation into a target protein. Cells expressing the PylRS/tRNApyl pair and containing a vector encoding the GFPY40 reporter gene were incubated in the presence of the nnAAs. nnAAs that are readily utilized by the PylRS/tRNApyl pair support the translation of the nnAA into the amber site of GFP and allow read-through of the gene producing full length GFP (fluorescent protein). The fluorescence intensity of the cells depends on the efficiency of nnAA incorporation. Thus, nnAAs that are poorly utilized produce weakly fluorescent or non-fluorescing cells. […] Furthermore, the relative expression levels in each sample was compared to those generated by substrates known to be efficiently utilized by pylRS.
# [1] = system: CHO cells stably expressing pylRS and tRNApyl and an IgG directed against her2/neu containing an amber codon; test: Growth and viability of pylRS/tRNApyl cell line treated with lys azide and dnnAA
# Text: To examine whether the dnnAAs of the invention could function to improve the viability of cells containing pylRS and tRNApyl we monitored the growth and viability of a cell line, stably expressing pylRS and tRNApyl. For this assay CHO cells stably expressing pylRS and tRNApyl and an IgG directed against her2/neu containing an amber codon in the heavy chain, shown to effectively incorporate nnAA into the expressed IgG thus producing an antibody containing a nnAA, were used for this experiment. Despite a high expression level of pylRS/tRNApyl pair, this cell line has very robust cell growth characteristics when grown in medium lacking nnAA. The presence of a highly expressed target containing an amber codon likely has a protective effect on the cells by supplying them with high levels of amber codons that absorb the amber suppression activity and protects the cells from the effects of background amber suppression at essential genes. However, upon addition of the nnAA (lys-azide) to the growth medium, and activation of the amber suppression machinery, a decrease in cell growth rate is observed. […] To determine whether a dnnAA can rescue this effect, cells cultured in serum free medium were grown to a cell density of 0.5×10^6 cells/mL and subsequently treated with 0.5 mM lys azide alone or in combination with 2 Mm dnnAA. Cell viability and cell numbers were monitored daily over seven days. Cells treated with lys azide alone reached a cell density just below 1×10^6 cells/mL on day 3 after nnAA addition and remained at this density for the remainder of the assay (seven days) (FIG. 15A) The lack of growth was not likely due to loss of viability as the culture retained high viability throughout the experiment (˜70% viable cells) (FIG. 15B) Cultures treated with 2 mM Compound of formula VIIB.4, or 2 mM Formula VIIB.1 in combination with 0.5 mM lys-azide supported continued growth of the culture that reached over 1.5×10^6 cells/mL and retained a cell viability of 90%.
# pylRS = biological target: T2, pylRS (Methanosarcina mazei, UniProt Q8PWY1); test: In vitro GFPY40 functional assay: dnnAA competition with lys azide in HEK293 cells stably expressing pylRS; details: for reduction of GFP expression relative to samples lacking dnnAA (geometric mean fluorescence intensity): lys azide with 0.5 mM, 1 mM and 2 mM dnnAA
# T2 construct: expressed in transfected cells
# T2 sequence (Q8PWY1 whole entry): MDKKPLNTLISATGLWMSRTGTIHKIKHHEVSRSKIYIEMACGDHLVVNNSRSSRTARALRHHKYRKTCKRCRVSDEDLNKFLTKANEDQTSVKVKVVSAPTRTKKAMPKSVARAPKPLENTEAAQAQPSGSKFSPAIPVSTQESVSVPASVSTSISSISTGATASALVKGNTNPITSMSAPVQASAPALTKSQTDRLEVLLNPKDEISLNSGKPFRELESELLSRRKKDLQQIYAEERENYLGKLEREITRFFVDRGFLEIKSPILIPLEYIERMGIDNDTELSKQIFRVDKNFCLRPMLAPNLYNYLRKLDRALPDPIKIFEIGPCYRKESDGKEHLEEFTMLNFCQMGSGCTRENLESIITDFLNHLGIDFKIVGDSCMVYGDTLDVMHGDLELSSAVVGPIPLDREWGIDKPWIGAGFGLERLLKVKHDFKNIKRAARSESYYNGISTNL
# Text: Effective dnnAAs were identified by their ability to compete with a high affinity substrate for pylRS (lys-azide) in an in vitro assay, for their ability to reduce background amber suppression levels observed with a reporter protein, and for their ability to improve the viability and function of cells previously selected for high pylRS/tRNA activity.
# To identify analogues that could effectively compete for pylRS binding with lys-azide, dnnAAs were first tested for function in an in vitro functional assay based on the ability of cells expressing WT pylRS and tRNApyl to introduce a nnAA at a target site in the reporter protein GFPY40. This reporter contains an amber codon in its open reading frame that, in the absence of amber suppression, generates a truncated protein that is not fluorescent. In the event of amber suppression, a full length GFP protein is generated that is detectable by fluorescence detection methods. In this assay, HEK293 cells stably expressing pylRS, were transiently transfected with a tRNA expression construct and the GFPY40 reporter cassette. Cells were then incubated with 0.5 mM lys azide in the presence or absence of different concentrations of dnnAA ranging from 0.5 mM to 2 mM. GFP fluorescence levels were then quantified by flow cytometry. For this assay the proportion of fluorescent cells in each condition was determined and plotted. As the dnnAAs are expected to compete with the nnAA (lys-azide) for pylRS/tRNA binding, an effective dnnAA should reduce or prevent the expression of full length GFP (as described above dnnAAs can be delivered by the tRNA to the amber site, but cannot propagate protein synthesis).
# A similar in vitro assay was used to gauge the effectiveness of the dnnAAs of Formula VIIB listed in Table 1 where a description of the amino acids tested and a summary of the results are shown For this assay the geometric mean fluorescence intensity of each sample was determined by flow cytometry and plotted. For each dnnAA tested control cells transfected with wild type GFP were measured as a positive control. In addition cells transfected with the reporter GFPY40 and exposed to 0.5 mM lys azide or 2 mM lys azide were used to determine maximal GFP expression levels in the absence of an inhibitor. In each case robust GFP expression levels were observed. To test whether any of the dnnAA could reduce the efficacy of GFP expression, cells were incubated in the presence of 0.5 mM, 1 mM and 2 mM […]. […] Thus, dnnAAs of the present invention can compete with the lys-azide nnAA for binding to the pylRS and interfere with the physiological mechanism of nnAA introduction. Cells transfected with the pylRS/tRNA pair and the GFPY40 reporter construct but not exposed to either lys-azide or a dnnAA were used to determine levels of background amber suppression and used as a negative control. In each case low GFP expression levels were observed.
# [2] = system: background amber suppression; test: Background amber suppression (GFPY40 reporter, pylRS/tRNApyl, dnnAA without nnAA); details: for % Reduction at 2 mM Decoy: reduction in GFP expression relative to control not exposed to dnnAA, 3 days; for reduction in background amber suppression levels: dnnAA at 0.5 mM, 1 mM and 2 mM
# Procedure: The competitive assay for dnnAA inhibition in the presence of a high affinity substrate identified dnnAAs that compete for binding with to the pylRS and thus are specific inhibitors of the pylRS/tRNA. However, the decoy nnAA is intended to reduce the levels of background amber suppression in the absence of nnAA. To determine if background amber suppression levels could be reduced, we incubated cells containing the GFPY40 reporter construct and the pylRS/tRNApyl pair in medium containing one of the dnnAAs. To do this, HEK293 cells stably expressing pylRS were transiently transfected with a tRNA expression construct and the GFPY40 reporter cassette. After 3 days of incubation, cells were assayed for expression of GFP by flow cytometry and geometric mean fluorescence intensity of the samples determined. We have previously observed that cells containing the full complement of the pylRS/tRNA amber suppression system show detectable expression of the GFP reporter construct that is above what is observed in cells lacking the amber suppression system. […] To identify dnnAAs capable of reducing background amber suppression levels the transfected cells were incubated with each of the dnnAAs at 0.5 mM, 1 mM and 2 mM and GFP levels measured by flow cytometry.
# The decrease in background amber suppression dependent GFP expression was dose dependent and improved as the dnnAA concentration increased. […] This feature is an attractive characteristic for platform development as it enables the repression of background amber suppression but the system can be activated upon addition of a strong pylRS substrate such as lys-azide. […] Their efficacy was quantified by the reduction in GFP expression relative to a control sample (not exposed to dnnAA) and the data are summarized in Table 1.
# [3] = 2 mM dnnAA with 0.5 mM lys-azide
# [4] = 2 mM dnnAA with 0.5 mM lys-azide, seven days
# [5] = Formula V analogs, geometric mean
# T1 sequence (Q8PWY1 whole entry): as above
compound,measurement,setting,value
"C=CCNC(=O)OCCCC[C@H](N)C(=O)O [Formula VI.3, (2S)-2-amino-6-{[(prop-2-en-1-yl)carbamoyl]oxy}hexanoic acid]",Positive GFP Assay,pylRS/tRNA pair; Formula VI analogs,incorporated in the GFP reporter gene and yield green cells and Yes
"CC(C)(C)OC(=O)NCCCCCC(=O)O [Formula VIIB.4, 6-{[(tert-butoxy)carbonyl]amino}hexanoic acid]",prevention of cytostatic effects of amber suppression activation,[1]; [3],prevent the cytostatic effects
same,cell viability,[1]; [4],90%
same,number of fluorescent cells (GFPY40),pylRS; 0.5 mM lys azide with dnnAA 0.5 mM to 2 mM,concomitant reduction in the number of fluorescent cells
same,GFP expression with dnnAA alone (amber codon readthrough),"pylRS; dnnAA alone, no lys azide",did not induce GFP expression
same,effect on GFPwt expression (non-specific effects),pylRS; reporter lacking an amber codon,no effect on protein expression
same,% Reduction at 2 mM Decoy,[2],46.3%
"C=CCOC(=O)NCCCCCC(=O)O [Formula VIIB.1, 6-{[(prop-2-en-1-yloxy)carbonyl]amino}hexanoic acid]",prevention of cytostatic effects of amber suppression activation,[1]; [3],prevent the cytostatic effects
same,cell viability,[1]; [4],90%
same,reduction of GFP expression relative to samples lacking dnnAA (geometric mean fluorescence intensity),pylRS,greatest reduction of GFP expression
same,reduction in background amber suppression levels,[2],reduction in the background amber suppression levels
same,% Reduction at 2 mM Decoy,[2],62.5%
"C#CCOC(=O)NCCCC[C@H](N)C(=O)O [Formula V.2, (2S)-2-amino-6-{[(prop-2-yn-1-yloxy)carbonyl]amino}hexanoic acid]",Positive GFP,pylRS/tRNA pair; Formula V analogs,Yes
same,MFI,pylRS/tRNA pair; [5],"1,676,250"
same,MFI,"pylRS/tRNA pair; Formula V analogs, geometric mean, listed as V.2",1676250
"[N-]=[N+]=NCCOC(=O)NCCCC[C@H](N)C(=O)O [Formula V.1, (2S)-2-amino-6-{[(2-azidoethoxy)carbonyl]amino}hexanoic acid]",viable cells,[1]; 0.5 mM lys azide alone,~70%
same,cell density,"[1]; 0.5 mM lys azide alone, day 3 to day 7",below 1 ×10^6 cells/mL
same,Positive GFP,pylRS/tRNA pair; Formula V analogs,Yes
same,MFI,pylRS/tRNA pair; [5],"931,289"
same,MFI,"pylRS/tRNA pair; Formula V analogs, geometric mean, listed as V.1",931289
"[N-]=[N+]=NCCOC(=O)NCCCCCC(=O)O [Formula VIIB.6, 6-{[(2-azidoethoxy)carbonyl]amino}hexanoic acid]",reduction of GFP expression relative to samples lacking dnnAA (geometric mean fluorescence intensity),pylRS,greatest reduction of GFP expression
same,reduction in background amber suppression levels,[2],reduction in the background amber suppression levels
same,% Reduction at 2 mM Decoy,[2],32%
same,% Reduction at 2 mM Decoy,[2]; listed as VIIB.6,32.7%
"C#CCOC(=O)NCCCCCC(=O)O [Formula VIIB.5, 6-{[(prop-2-yn-1-yloxy)carbonyl]amino}hexanoic acid]",reduction of GFP expression relative to samples lacking dnnAA (geometric mean fluorescence intensity),pylRS,relative reduction in GFP expression was much lower
same,reduction in background amber suppression levels,[2],reduction in the background amber suppression levels
same,% Reduction at 2 mM Decoy,[2],35%
same,% Reduction at 2 mM Decoy,[2]; listed as VIIB.5,35.0%
"[N-]=[N+]=NCCNC(=O)OCCCC[C@H](N)C(=O)O [Formula VI.1, (2S)-2-amino-6-{[(2-azidoethyl)carbamoyl]oxy}hexanoic acid]",MFI,pylRS/tRNA pair; Formula VI analogs,904206
same,Positive GFP Assay,pylRS/tRNA pair; Formula VI analogs,incorporated in the GFP reporter gene and yield green cells and Yes
"O=C(O)CCCCCNC(=O)OCCCl [Formula VIIB.3, 6-{[(2-chloroethoxy)carbonyl]amino}hexanoic acid]",cell density,[1]; [4],< 0.5 ×10^6 cells/mL
same,cell viability,[1]; [4],30-40%
same,reduction of GFP expression relative to samples lacking dnnAA (geometric mean fluorescence intensity),pylRS,greatest reduction of GFP expression
same,reduction in background amber suppression levels,[2],reduction in the background amber suppression levels
same,% Reduction at 2 mM Decoy,[2],49.7%
